Where a name gives a salt, the structure may show the parent alone.
The compounds below were run against T1, muscarinic receptor (Cavia porcellus, UniProt H0W1Z3) (assay: Functional in vitro studies: antagonism of carbachol-induced contraction of urinary bladder smooth muscle strips). Details: not given.
T1 construct: Smooth muscle strips of the urinary bladder were dissected in a Krebs-Henseleit solution; from tissue; host or cells: guinea pig urinary bladder smooth muscle strips
T1 sequence (H0W1Z3 1-590): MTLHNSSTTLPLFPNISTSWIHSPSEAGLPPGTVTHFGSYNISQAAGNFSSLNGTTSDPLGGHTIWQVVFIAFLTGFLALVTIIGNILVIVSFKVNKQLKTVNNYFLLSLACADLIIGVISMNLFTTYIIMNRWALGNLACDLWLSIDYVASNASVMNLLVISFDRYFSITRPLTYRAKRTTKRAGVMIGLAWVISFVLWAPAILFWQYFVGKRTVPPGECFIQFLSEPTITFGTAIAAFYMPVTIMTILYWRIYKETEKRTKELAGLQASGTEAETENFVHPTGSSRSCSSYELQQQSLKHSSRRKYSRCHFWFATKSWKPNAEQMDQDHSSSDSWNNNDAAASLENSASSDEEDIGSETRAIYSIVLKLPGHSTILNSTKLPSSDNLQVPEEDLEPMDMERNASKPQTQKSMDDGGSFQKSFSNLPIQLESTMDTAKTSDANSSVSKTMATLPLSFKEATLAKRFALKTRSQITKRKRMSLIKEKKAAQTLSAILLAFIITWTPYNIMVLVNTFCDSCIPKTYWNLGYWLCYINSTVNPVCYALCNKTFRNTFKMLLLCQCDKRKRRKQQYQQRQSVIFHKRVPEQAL
Type: cell-based, guinea pig
With `CC(C)N(CCC(c1ccccc1)c1cnc[nH]1)C(C)C` (stereo not drawn) [Example 36, N,N-Diisopropyl-3-(imidazol-4(5)-yl)-3-phenylpropanamine dihydrochloride] the Kb was 2.64 µM.

Same assay, conditions: male guinea pig urinary bladder strips; carbachol agonist; 60 min incubation with antagonist; Krebs-Henseleit pH 7.4, 37° C.; KB from dose ratios (Schild); 60 min; read-out: KB-value
`CC(C)N(CC[C@H](c1ccccc1)c1cc(C(O)CO)ccc1O)C(C)C` (single isomer, unassigned; (+)) [Example 15, (+)-N,N-Diisopropyl-3(R)-[5-(1(R*),2-dihydroxyethyl)-2-hydroxyphenyl]-3-phenylpropanamine fumarate] was tested, and the Kb was 0.015 µM.

Same assay, conditions: male guinea pig urinary bladder strips; carbachol agonist; 60 min incubation with antagonist; Krebs-Henseleit pH 7.4, 37° C.; KB from dose ratios (Schild); read-out: KB-value
Compound `CC(C)N(CCC(c1cccnc1)c1ccccc1O)C(C)C` (stereo not drawn) [Example 5, N,N-Diisopropyl-3-(2-hydroxyphenyl)-3-(3-pyridyl)-propanamine dihydrochloride] has a Kb of 0.336 µM. `COc1ccc(C(CCN(C(C)C)C(C)C)c2cccs2)cc1` (stereo not drawn) [Example 46, N,N-Diisopropyl-3-(4-methoxyphenyl)-3-(2-thienyl)propanamine hydrochloride] was tested, and the Kb was 0.286 µM. Compound `Cc1ccc(O)c(C(CCN(C(C)C)C(C)C)c2cccs2)c1` (single isomer, unassigned) [Example 55, (R*) N,N-Diisopropyl-3-(2-hydroxy-5-methylphenyl)-3-(2-thienyl)propanamine] has a Kb of 0.002 µM. Compound `CC(C)N(CCC(c1ccccc1)c1nc2ccccc2o1)C(C)C` (stereo not drawn) [Example 34, N,N-Diisopropyl-3-(benzoxazol-2-yl)-3-phenylpropanamine, hydrochloride] has a Kb of 0.803 µM. In the case of `CC(C)NCCC(c1ccccc1)c1cc(C(=O)O)ccc1O` (stereo not drawn) [Example 20, N-Isopropyl-3-(5-carboxy-2-hydroxyphenyl)-3-phenylpropanamine hydrochloride], the Kb is reported as 3.31 µM. For `Cc1csc(C(CCN(C(C)C)C(C)C)c2ccccc2)n1` (stereo not drawn) [Example 39, N,N-Diisopropyl-3-(4-methylthiazol-2-yl)-3-phenyl-propanamine hydrochloride], the Kb was 0.235 µM. `COc1ccccc1C(CCN(C(C)C)C(C)C)c1cccs1` (stereo not drawn) [Example 43, N,N-Diisopropylamine-3-(2-methoxyphenyl)-3-(2-thienyl)propanamine, fumarate] was tested, and the Kb was 0.029 µM. In the case of `CC(C)N(CCC(c1cccs1)c1ccc(O)cc1O)C(C)C` (stereo not drawn) [Example 42, N,N-Diisopropyl-3-(2,4-dihydroxyphenyl)-3-(2-thienyl)propanamine], the Kb is reported as 0.286 µM. With `CC(C)N(C)CCC(c1ccccc1)c1cccs1` (stereo not drawn) [Example 51, N-Isopropyl-N-methyl-3-phenyl-3-(2-thienyl)propanamine hydrochloride] the Kb was 0.118 µM. `CC(C)N(CCC(c1cccs1)c1ccccc1O)C(C)C` (stereo not drawn) [Example 41, N,N-Diisopropyl-3-(2-hydroxyphenyl)-3-(2-thienyl)-propanamine fumarate] showed a Kb of 0.0076 µM. `CC(C)N(CC[C@H](c1ccccc1)c1cc(CCO)ccc1O)C(C)C` [Example 12, (R)-N,N-Diisopropyl-3-[2-hydroxy-5-(2-hydroxyethyl)phenyl]-3-phenylpropanamine hydrochloride] was tested, and the Kb was 0.00118 µM. `CC(=O)c1ccc(O)c([C@H](CCN(C(C)C)C(C)C)c2ccccc2)c1` [Example 13, (R)-N,N-Diisopropyl-3-(5-acetyl-2-hydroxyphenyl)-3-phenylpropanamine hydrochloride] gave a Kb of 0.015 µM. With `CN(CCC(c1ccccc1)c1ccccc1O)C1CCCC1` (stereo not drawn) [Example 32, N-Cyclopentyl-N-methyl-3-(2-hydroxyphenyl)-3-phenylpropanamine hydrochloride] the Kb was 0.036 µM. `CC(C)N(CC[C@H](c1ccccc1)c1cc(C=O)ccc1O)C(C)C` [Example 7, (R)-N,N-Diisopropyl-3-(5-formyl-2-hydroxyphenyl)-3-phenylpropanamine hydrochloride] gave a Kb of 0.013 µM. In the case of `CC(C)N(CC[C@H](c1ccccc1)c1cc(CNCCOCCO)ccc1O)C(C)C` [Example 8, (R)-N,N-Diisopropyl-3-[5-(7-hydroxy-2-aza-5-oxaheptyl)-2-hydroxyphenyl]-3-phenylpropanazine di-(S)-mandelate], the Kb is reported as 0.026 µM. `CCOCc1ccc(O)c([C@H](CCN(C(C)C)C(C)C)c2ccccc2)c1` [Example 19, (R)-N,N-Diisopropyl-3-(5-ethoxymethyl-2-hydroxyphenyl)-3-phenylpropanamine] was tested, and the Kb was 0.0029 µM.

From patent US6313132A, “Therapeutically active diarylpropylamines; their pharmaceutically acceptable salts; a method for their preparation and method for their use” (Pharmacia AB, priority 1999, dated 2001)
